Measurements from PubChem BioAssay AID248 (DTP/NCI, 2004).
Values joined by “and” are separate entries in the source; they are usually repeats but may differ in a detail not shown here. Equal values may be shown once. Inconclusive results and toxic doses are left out. Cut-off read from the data, not from the text of the source: active = T/C of 150% or more; inactive = T/C below 125%.

System: L1210 leukemia ip in BDF1 mice, survival T/C
Test: NCI In Vivo Anticancer Drug Screen. Data for tumor model L1210 Leukemia (intraperitoneal) in B6D2F1 (BDF1) mice
Conditions: endpoint: mean survival time, higher = longer survival
Method in brief: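 Antitumor effect is assessed in tumor-bearing animals. Survival in the compound arm is compared with a vehicle-dosed control arm and expressed as their quotient.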

[1] = dose: 100.0 mg/kg/injection, schedule: Q01DX009 (ip), vehicle: Klucel (hydroxypropylcellulose) (HPC)
[2] = dose: 100.0 mg/kg/injection, schedule: Q04DX003 (ip), vehicle: Klucel (hydroxypropylcellulose) (HPC)
[3] = dose: 200.0 mg/kg/injection, schedule: Q01DX009 (ip), vehicle: Klucel (hydroxypropylcellulose) (HPC)
[4] = dose: 200.0 mg/kg/injection, schedule: Q04DX003 (ip), vehicle: Klucel (hydroxypropylcellulose) (HPC)
[5] = dose: 400.0 mg/kg/injection, schedule: Q01DX009 (ip), vehicle: Klucel (hydroxypropylcellulose) (HPC)
[6] = dose: 400.0 mg/kg/injection, schedule: Q04DX003 (ip), vehicle: Klucel (hydroxypropylcellulose) (HPC)
[7] = dose: 10.0 mg/kg/injection, schedule: Q01DX001 (ip), vehicle: saline
[8] = dose: 20.0 mg/kg/injection, schedule: Q01DX001 (ip), vehicle: saline
[9] = dose: 100.0 mg/kg/injection, schedule: Q01DX001 (ip), vehicle: saline
[10] = dose: 100.0 mg/kg/injection, schedule: Q01DX001 (ip), vehicle: Klucel (hydroxypropylcellulose) (HPC)
[11] = dose: 200.0 mg/kg/injection, schedule: Q01DX001 (ip), vehicle: Klucel (hydroxypropylcellulose) (HPC)
[12] = dose: 400.0 mg/kg/injection, schedule: Q01DX001 (ip), vehicle: Klucel (hydroxypropylcellulose) (HPC)
[13] = dose: 50.0 mg/kg/injection, schedule: Q01DX009 (ip), vehicle: saline with Tween-80
[14] = dose: 100.0 mg/kg/injection, schedule: Q04DX003 (ip), vehicle: saline with Tween-80
[15] = dose: 200.0 mg/kg/injection, schedule: Q04DX003 (ip), vehicle: saline with Tween-80
[16] = dose: 100.0 mg/kg/injection, schedule: Q01DX001 (ip), vehicle: saline with Tween-80
[17] = dose: 200.0 mg/kg/injection, schedule: Q01DX001 (ip), vehicle: saline with Tween-80
[18] = dose: 100.0 mg/kg/injection, schedule: Q04DX003 (ip), vehicle: saline
[19] = dose: 200.0 mg/kg/injection, schedule: Q04DX003 (ip), vehicle: saline
[20] = dose: 400.0 mg/kg/injection, schedule: Q04DX003 (ip), vehicle: saline
[21] = dose: 200.0 mg/kg/injection, schedule: Q01DX001 (ip), vehicle: saline
[22] = dose: 400.0 mg/kg/injection, schedule: Q01DX001 (ip), vehicle: saline

Measured: T/C

CCOC(=O)C1C(O)=C(P(=O)(C2=C(O)C(C(=O)OCC)C(c3ccc(OC(C)=O)cc3)C(C(=O)O)C2=O)N(CCCl)CCCl)C(=O)C(C(=O)O)C1c1ccc(OC(C)=O)cc1 (stereo not given)
inactive: [1] 97 % of control | [2] 98 % of control | [3] 102 % of control | [4] 98 % of control | [5] 102 % of control | [6] 108 % of control

CC#CC#C/C=C1/C=CC(=O)O1
inactive: dose: 6.25 mg/kg/injection, schedule: Q01DX009 (ip), vehicle: saline 98 % of control | dose: 6.25 mg/kg/injection, schedule: Q04DX003 (ip), vehicle: saline 96 % of control | dose: 12.5 mg/kg/injection, schedule: Q01DX009 (ip), vehicle: saline 105 % of control | dose: 12.5 mg/kg/injection, schedule: Q04DX003 (ip), vehicle: saline 103 % of control | dose: 25.0 mg/kg/injection, schedule: Q01DX009 (ip), vehicle: saline 94 % of control | dose: 25.0 mg/kg/injection, schedule: Q04DX003 (ip), vehicle: saline 91 % of control

Cc1c(-[n+]2ccccc2)[nH]c2ccccc12
inactive: dose: 5.0 mg/kg/injection, schedule: Q01DX001 (ip), vehicle: saline 103 % of control | [7] 103 % of control | [8] 101 % of control | dose: 40.0 mg/kg/injection, schedule: Q01DX001 (ip), vehicle: saline 104 % of control | dose: 80.0 mg/kg/injection, schedule: Q01DX001 (ip), vehicle: saline 106 % of control | [9] 92 % of control

COC1CCC=CO1 (stereo not given)
inactive: dose: 13.3 mg/kg/injection, schedule: Q01DX Z (ip), vehicle: saline 93 % of control | dose: 20.0 mg/kg/injection, schedule: Q01DX Z (ip), vehicle: saline 105 % of control | dose: 30.0 mg/kg/injection, schedule: Q01DX Z (ip), vehicle: saline 109 % of control

CCC(CCl)NC1CCCCC1 (stereo not given)
inactive: dose: 75.0 mg/kg/injection, schedule: Q01DX001 (ip), vehicle: saline 106 % of control | dose: 150.0 mg/kg/injection, schedule: Q01DX001 (ip), vehicle: saline 106 % of control

CCOC(=O)c1[nH]c2ccccc2c1CN(CCCl)CCCl
inactive: dose: 2.5 mg/kg/injection, schedule: Q01DX Z (ip), vehicle: saline 107 % of control | dose: 5.0 mg/kg/injection, schedule: Q01DX Z (ip), vehicle: saline 108 % of control | dose: 10.0 mg/kg/injection, schedule: Q01DX Z (ip), vehicle: other 120 % of control | dose: 10.0 mg/kg/injection, schedule: Q01DX Z (ip), vehicle: saline 120 % of control | dose: 20.0 mg/kg/injection, schedule: Q01DX Z (ip), vehicle: other 122 % of control

O=C(O)CCCC1CCc2ccccc2C1 (stereo not given)
inactive: [10] 104 % of control | [11] 102 % of control | [12] 103 % of control

CC#CC(=O)SCCNC(=O)CC
inactive: dose: 25.0 mg/kg/injection, schedule: Q01DX009 (ip), vehicle: saline with Tween-80 104 % of control | [13] 96 % of control | [14] 103 % of control | [15] 91 % of control

CN1CN(c2ccccc2)C2(CCN(c3nc4ccccc4s3)CC2)C1=O
inactive: [10] 91 % of control | [11] 94 % of control | [12] 96 % of control

CN(C)C(=S)Oc1ccc(O)cc1
inactive: [16] 102 % of control | [17] 97 % of control | dose: 400.0 mg/kg/injection, schedule: Q01DX001 (ip), vehicle: saline with Tween-80 100 % of control

CCCP(=S)(CCC)CCC
inactive: [16] 103 % of control | [17] 94 % of control

COc1cc(NC(=O)CC(C)=O)cc2c(C)cc(=O)n(C)c12
inactive: [1] 101 % of control | [2] 106 % of control | [3] 98 % of control | [4] 89 % of control | [5] 91 % of control | [6] 94 % of control

CCOP(=O)(Cc1ccc(CP(=O)(OCC)OCC)cc1)OCC
inactive: [18] 105 % of control | [19] 97 % of control | [20] 101 % of control

CCCC/C(=N/Nc1ccc([N+](=O)[O-])cc1[N+](=O)[O-])c1ccc(Cl)cc1
inactive: [9] 98 % of control | [21] 88 % of control | [22] 102 % of control

NCc1c[nH]c2ccccc12
inactive: dose: 44.0 mg/kg/injection, schedule: Q01DX Z (ip), vehicle: water 107 % of control | dose: 66.0 mg/kg/injection, schedule: Q01DX Z (ip), vehicle: water 105 % of control | [9] 95 % of control | dose: 100.0 mg/kg/injection, schedule: Q01DX Z (ip), vehicle: water 105 % of control | [18] 98 % of control | dose: 150.0 mg/kg/injection, schedule: Q01DX Z (ip), vehicle: water 105 % of control | [21] 92 % of control | [19] 95 % of control | [22] 89 % of control | [20] 88 % of control

CC(=O)Nc1ccc(S(=O)(=O)SC(Cl)(Cl)Cl)cc1
inactive: dose: 100.0 mg/kg/injection, schedule: Q01DX009 (ip), vehicle: gum acacia 99 % of control | dose: 200.0 mg/kg/injection, schedule: Q01DX009 (ip), vehicle: gum acacia 94 % of control | dose: 400.0 mg/kg/injection, schedule: Q01DX009 (ip), vehicle: gum acacia 99 % of control

O=C1C(N2CCOCC2)=Cc2cccc3cccc1c23
inactive: [13] 103 % of control | dose: 100.0 mg/kg/injection, schedule: Q01DX009 (ip), vehicle: saline with Tween-80 97 % of control | [14] 92 % of control | dose: 200.0 mg/kg/injection, schedule: Q01DX009 (ip), vehicle: saline with Tween-80 97 % of control and 90 % of control | [15] 97 % of control

Cc1ccc(NC(=S)/C(=C(\[O-])c2ccc([N+](=O)[O-])cc2)[n+]2ccc(C(C)C)cc2)c(C)c1
inactive: [1] 101 % of control | [3] 98 % of control | [5] 101 % of control

c1ccc2c(c1)ccc1c[n+]3c4ccccc4ccc3n12
inactive: dose: 0.62 mg/kg/injection, schedule: Q01DX009 (ip), vehicle: saline 105 % of control | dose: 1.25 mg/kg/injection, schedule: Q01DX009 (ip), vehicle: saline 113 % of control | dose: 2.5 mg/kg/injection, schedule: Q01DX009 (ip), vehicle: saline 123 % of control | dose: 5.0 mg/kg/injection, schedule: Q04DX003 (ip), vehicle: saline 106 % of control | [7] 109 % of control | [8] 105 % of control

CC(=O)CC(=O)N(c1ccccn1)c1ccccn1
inactive: dose: 100.0 mg/kg/injection, schedule: Q01DX001 (ip), vehicle: carboxymethylcellulose (CMC) 104 % of control | dose: 200.0 mg/kg/injection, schedule: Q01DX001 (ip), vehicle: carboxymethylcellulose (CMC) 98 % of control | dose: 400.0 mg/kg/injection, schedule: Q01DX001 (ip), vehicle: carboxymethylcellulose (CMC) 98 % of control
